Measured values: patent publication US20170065564A1, “BIS-CYCLIC GUANIDINE COMPOUND COMPOSITIONS, METHODS OF USE AND TREATMENT THEREOF” (University of South Florida, priority 2014, published 2017)

Legend:
[1] = test system: Staphylococcus aureus biofilm; test: Minimum biofilm eradication concentration (MBEC) assay; assay type: cell-based; details: 24 h biofilm, purified compound
Procedure: (§1) The minimum biofilm eradication concentration (MBEC) was determined in 96-well microtiter plates as follows. Broth cultures of ESKAPE strains were grown using the conditions described above. Biofilms for each of the ESKAPE pathogens were generated from these as we have previously described for S. aureus, however human serum was not used for non-staphylococcal organisms.^44 46 For all organisms, biofilms were developed by standardizing an overnight culture into fresh media to an OD600 of 0.5 and adding 150 μl into each well of a 96-well microtiter plate. […] These cultures were incubated at 37° C. overnight alongside no drug controls. After 24 hours, the media was removed from wells and the biofilm resuspended in phosphate buffered saline (PBS). Cultures were mixed by vigorous pipetting, before being serially diluted in PBS, and plated in duplicate on relevant agar. Plates were incubated at 37° C. for 24 hours, and CFUs determined by enumeration. Each analysis was performed using three technical replicates, and antibiofilm activity was determined by comparing treated to untreated samples.

[2] = test system: Klebsiella pneumoniae biofilm; test: as above; assay type: cell-based; details: 24 h biofilm, purified compound
Procedure: as §1

[3] = test system: Acinetobacter baumannii biofilm; test: as above; assay type: cell-based; details: 24 h biofilm, purified compound
Procedure: as §1

[4] = test system: Enterobacter cloacae biofilm; test: as above; assay type: cell-based; details: 24 h biofilm, purified compound
Procedure: as §1

A. baumannii = test: Resistance serial passage assay; assay type: cell-based, Acinetobacter baumannii; details: 8 passages, concentration doubled each day
Procedure: (§2) ESKAPE pathogens were grown overnight in liquid media at 37° C. These cultures were then diluted 1:100 in fresh media, and seeded into a 96-well plate. Lead bis-cyclic guanidines or control agents were added to respective wells at half MIC concentrations. Plates were then incubated for 24 hours at 37° C., with bacteria removed from these cultures on the following day, to inoculate fresh media (1:100 dilution) containing compounds at a 2-fold higher concentrations. These were then grown overnight, and the procedure repeated for a total of eight days. […] Each experiment was performed in triplicate, yielding identical results.

K. pneumoniae = test: Resistance serial passage assay; assay type: cell-based, Klebsiella pneumoniae; details: 8 passages, concentration doubled each day
Procedure: as §2

Pseudomonas aeruginosa = test: Minimal bactericidal concentration (MBC) assay; assay type: cell-based; details: Pseudomonas aeruginosa; purified compound; read-out: MBC90
Procedure: (§3) Briefly, compound was washed by centrifugation and serial dilution, before plating on Tryptic Soy Agar (TSA). Plates were incubated for 24 hours at 37° C. and cell viability assessed by determining CFU/ml at each concentration, for every compound. Percent recovery was then determined compared to CFU/ml from no drug controls. All concentrations and controls were tested using three biological replicates, alongside two technical replicates for each data point.

Klebsiella pneumoniae = test: Minimal bactericidal concentration (MBC) assay; assay type: cell-based; details: Klebsiella pneumoniae, purified compound; read-out: MBC90
Procedure: as §3

Acinetobacter baumannii = test: Minimal bactericidal concentration (MBC) assay; assay type: cell-based; details: Acinetobacter baumannii, purified compound; read-out: MBC90
Procedure: as §3

Staphylococcus aureus [5] = test: Minimal bactericidal concentration (MBC) assay; assay type: cell-based; details: Staphylococcus aureus, purified compound; read-out: MBC90
Procedure: as §3

Enterococcus faecium [6] = test: Minimal bactericidal concentration (MBC) assay; assay type: cell-based; details: Enterococcus faecium, purified compound; read-out: MBC90
Procedure: as §3

Enterobacter cloacae [7] = test: Minimal bactericidal concentration (MBC) assay; assay type: cell-based; details: Enterobacter cloacae; purified compound; read-out: MBC90
Procedure: as §3

Enterococcus faecium [8] = test: MIC micro broth dilution assay; assay type: cell-based; details: for MIC: Enterococcus faecium
Summary of the method: (§4)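 Multidrug-resistant clinical ESKAPE isolates were grown overnight (Gram-positives in TSB, Gram-negatives in LB), diluted 1:1,000 and exposed to decreasing compound concentrations in DMF (≤2.0% DMF).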

Enterobacter cloacae [9] = test: MIC micro broth dilution assay; assay type: cell-based; details: for MIC: Enterobacter cloacae
Summary of the method: as §4

S. aureus = test: Resistance serial passage assay; assay type: cell-based, Staphylococcus aureus; details: 8 passages, concentration doubled each day
Procedure: as §2

Staphylococcus aureus [10] = test: MIC micro broth dilution assay; assay type: cell-based; details: for MIC: Staphylococcus aureus
Summary of the method: as §4

CCCCCCCN1C(=N)N(CCCC[C@H]2CNC(=N)N2CCCCC2CCCCC2)C[C@@H]1CC1CCCCC1 [Compound 16]
20: stacked score activity, 100/MIC, E (Enterobacter cloacae [9]; E. cloacae) | stacked score activity, 100/MIC, S (Staphylococcus aureus [10]; S. aureus)
14.13 µM: MBEC50 [3]
4.45 µM: MBC (Klebsiella pneumoniae)
5 µM: MIC (Enterobacter cloacae [9]; E. cloacae isolate 1446)
6.28 µM: MBEC50 [2]
2.87 µM: MBC (Enterococcus faecium [6])
3.88 µM: MBC (Staphylococcus aureus [5])
1.62 µM: MIC (Enterococcus faecium [8]; purified compound, Table 1) | MIC (Enterobacter cloacae [9]; purified compound, Table 1) | MIC (Staphylococcus aureus [10]; purified compound, Table 1)
12.68 µM: MBEC50 [4]
33: stacked score activity, 100/MIC, E (Enterococcus faecium [8]; E. faecium)
9.55 µM: MBC (Enterobacter cloacae [7])
3.99 µM: MBC (Pseudomonas aeruginosa)
8 fold: increase in MIC after serial passage (A. baumannii) | increase in MIC after serial passage (K. pneumoniae)
16 fold: increase in MIC after serial passage (S. aureus)
7.58 µM: MBEC50 [1]
2 µM: MIC (Enterococcus faecium [8]; E. faecium isolate 1406) | MIC (Enterococcus faecium [8]; E. faecium isolate 1407) | MIC (Enterococcus faecium [8]; E. faecium isolate 1432) | MIC (Enterococcus faecium [8]; E. faecium isolate 1438) | MIC (Enterococcus faecium [8]; E. faecium isolate 1439) | MIC (Enterococcus faecium [8]; E. faecium isolate 1443) | MIC (Enterococcus faecium [8]; E. faecium isolate 1444) | MIC (Enterococcus faecium [8]; E. faecium isolate 1449) | MIC (Enterococcus faecium [8]; E. faecium isolate 1450) | MIC (Enterococcus faecium [8]; E. faecium isolate 1451) | MIC (Enterobacter cloacae [9]; E. cloacae isolate 1404) | MIC (Enterobacter cloacae [9]; E. cloacae isolate 1405) | MIC (Enterobacter cloacae [9]; E. cloacae isolate 1430) | MIC (Enterobacter cloacae [9]; E. cloacae isolate 1431) | MIC (Enterobacter cloacae [9]; E. cloacae isolate 1445) | MIC (Enterobacter cloacae [9]; E. cloacae isolate 1447) | MIC (Enterobacter cloacae [9]; E. cloacae isolate 1448) | MIC (Enterobacter cloacae [9]; E. cloacae isolate 1454) | MIC (Enterobacter cloacae [9]; E. cloacae isolate 1455) | concentration inhibiting 90% of isolates (Enterobacter cloacae [9]; panel of E. cloacae clinical isolates) | MIC (Staphylococcus aureus [10]; S. aureus isolate 542) | MIC (Staphylococcus aureus [10]; S. aureus isolate 626) | MIC (Staphylococcus aureus [10]; S. aureus isolate 635) | MIC (Staphylococcus aureus [10]; S. aureus isolate 648) | MIC (Staphylococcus aureus [10]; S. aureus isolate 690) | MIC (Staphylococcus aureus [10]; S. aureus isolate 693) | MIC (Staphylococcus aureus [10]; S. aureus isolate 715) | MIC (Staphylococcus aureus [10]; S. aureus isolate 728) | MIC (Staphylococcus aureus [10]; S. aureus isolate 834) | MIC (Staphylococcus aureus [10]; S. aureus isolate 1043) | MIC (Staphylococcus aureus [10]; S. aureus isolate 1049)
2.77 µM: MBC (Acinetobacter baumannii)
